Assay: Human HepG2 cell viability assay in 384 well format
Type: toxicity, cell-based
Design: dose 125 nL, time 70.5 hour; cytotoxicity at 70.5 h: concentration not given beside the values
Conditions: HepG2 cells, read-out: Inhibition

Row | SMILES | cytotoxicity at 70.5 h [%]
1 | COC(=O)c1ccc(N2CCN(C(=O)c3ccc(=O)n(C)c3)CC2)cc1 | -5.8
2 | CCOc1ccc(Cl)c(C(=O)NC(C(N)=O)c2ccccc2)n1 (stereo not drawn) | 14.2
3 | COc1ccc(CN2CCCn3cnc(COC(C)C)c3C2)cc1 | 23.2
4 | COc1cccc(-c2noc(C3CCN(Cc4cn(C)nc4C)C3)n2)c1 (stereo not drawn) | -5.53
5 | CCc1csc(CNCC(=O)Nc2ccc(Cl)c(C)c2)n1 | -6.59
6 | CCN(Cc1ccc2c(c1)OCO2)C(=O)c1ccc(=O)n(C)c1 | -0.838
7 | COCc1ccc(CNc2cnn(C(C)(C)C)c(=O)c2Cl)cc1 | 19.8
8 | Cc1noc(C)c1CN(C)C(=O)NC1CCCN(S(C)(=O)=O)C1 (stereo not drawn) | 0.729
9 | COc1ccc(Br)cc1NCC(=O)NC(C)(C#N)C1CC1 (stereo not drawn) | 2.31
10 | Fc1cnc(NCC2Cn3nnc(-c4ccccc4)c3CO2)nc1 (stereo not drawn) | 24.4
11 | Cc1cc(C)c2cc(CNCc3cccnc3)c3nn(C)c(=O)n3c2c1 | -0.562
12 | CCOc1ccc(C(=O)NCCCNc2ncccn2)cc1 | 17.7
13 | CCOc1ccc2oc(-c3cn(C)nc3C)c(O)c(=O)c2c1 | 32.5
14 | OC1(CNCCN2CCCc3ccccc32)CCNC1 (stereo not drawn) | -11.6
15 | Cc1cccc(CN2CCCCC2c2n[nH]cc2-c2cc(C)no2)c1 (stereo not drawn) | -6.6
16 | Cc1ccc(CN(CCCn2ccnc2)Cc2c(F)cccc2F)s1 | 24
17 | Cc1cnn(CCNCc2ccc(F)cc2Cl)c1 | -10.2
18 | O=C(CCc1nccs1)N1CCN(c2ccc(Br)cn2)CC1 | 22.4
19 | CC(=O)N1[C@H](CN(C)C)C[C@@H]2CN(C(=O)c3cccn3C)CC[C@@H]21 | -11.1
20 | Cn1c(CNCC2CCCN2c2cccnn2)nc2ccccc21 (stereo not drawn) | -1.26
21 | Cc1cc(C)nc(Nc2nccnc2C2CCCN(C(CO)CO)C2)n1 (stereo not drawn) | -6.39
22 | CC(C)(O)CN1CCN(C(=O)c2cccc(CC#N)c2)CC1 | 1.57
23 | Cc1cnn(CC(C)NCc2cc(=O)n3cc(C)ccc3n2)c1 (stereo not drawn) | -6.57

Row | SMILES | cytotoxicity at 70.5 h [%]
24 | Cn1cc(C(=O)NC[C@H]2OC[C@@H]3CCN(C4CCOCC4)C[C@@H]32)cn1 | -3.43
25 | Cc1n[nH]c(C)c1Sc1ccccc1NC(=O)N1CCCC(C(N)=O)C1 (stereo not drawn) | 5.35
26 | COc1cccc(CN2CCCC3(CCN(C(=O)c4ccco4)C3)C2)c1 (stereo not drawn) | -8.94
27 | Cc1ccc(NC2COC3(CCN(Cc4ccn(C)n4)CC3)C2)nn1 (stereo not drawn) | -7.47
28 | CCc1ccc(C(C)NC(=O)N2CCC(n3cncn3)CC2)cc1 (stereo not drawn) | -8.05
29 | Cc1cccc(C(=O)N2CCCC2)c1NCC(=O)NC1(C#N)CCCC1 | -4.19
30 | Cc1noc(C)c1CN1CCN(C)c2ncccc2C1 | -5.95
31 | Cc1nn(CCCNC(=O)C2CCN(S(C)(=O)=O)CC2)c(Cl)c1Cl | -7.28
32 | COc1cc(NC2CCS(=O)(=O)C2)ncn1 (stereo not drawn) | -17.8
33 | CCc1nc(CN2CCN(C(=O)C3CCCCC3)CC2)cs1 | -12.3
34 | CCn1ccnc1CN1CCCN(C(=O)c2sccc2C#N)CC1 | 1.96
35 | COC(=O)C(C)(C)NC(=O)c1scnc1Cl | 0.537
36 | NC(=O)c1ccnc(N2CCCC(CO)(Cc3ccc(F)cc3)C2)c1 (stereo not drawn) | -6.25
37 | O=C1CC(N(C(=O)c2ccc(F)c(C(F)(F)F)c2)C2CC2)C(=O)N1 (stereo not drawn) | 0.0677
38 | O=C(O)CCc1cccc(C2CCCN2Cc2cccc(Cl)c2)n1 (stereo not drawn) | -0.284
39 | O=C(CCC1CCCN(C(=O)CCc2ccc(F)c(F)c2)C1)NC1CC1 (stereo not drawn) | -8.38
40 | COCCN1CCCC2(CCN(Cc3noc(C4CCCC4)n3)C2)C1=O (stereo not drawn) | -4.8
41 | CCC(C)(C)c1cc(-c2c(C)nn(CCO)c2C)c(C#N)c(N)n1 | 12.5
42 | Cc1cc(CN2C[C@@H]3COC[C@@H](C(=O)N4CCCCO4)[C@@H]3C2)no1 | 20.1
43 | CCCc1ncc(CNC2(c3ccc(Cl)cc3)CCC2)cn1 | -4.55
44 | COc1ccc2[nH]cc(C(=O)N3C[C@@H](O)[C@H](N4CCCC4)C3)c2c1 | 17.1
45 | O=C(COCc1ccccc1)N1CCCC(n2cncn2)C1 (stereo not drawn) | -20.7
46 | CCOCCN1Cc2cnn(C)c2C(COCC)C1 (stereo not drawn) | 8.6

Row | SMILES | cytotoxicity at 70.5 h [%]
47 | CC(C)(C)OC(=O)N1CC(CC(=O)NCc2ccsc2)C1 | 7.8
48 | COc1cc(-c2n[nH]c(CC#N)n2)cc(OC)c1OC | 51.6
49 | CC(C)N(C)Cc1cc(=O)n2c(n1)CN(C(=O)c1cnccn1)CCC2 | 4.66
50 | CCSc1ccccc1C(=O)N1CC2(COC(C)(C)OC2)C1 | -4.65
51 | CN(Cc1ccco1)Cc1cnc2n1CCN(c1ncccn1)CC2 | -9.53
52 | CCn1ccnc1CN1CCN(CCc2ccncc2)CC1C (stereo not drawn) | 7.35
53 | CCc1ncc2c(n1)CN(CCCc1nc3ccccc3o1)CC2 | 0.768
54 | Cn1cc(CN2CC[C@@H]3[C@@H](CCC(=O)N3CC3CCNCC3)C2)cn1 | 1.94
55 | O=S(=O)(CCOc1ccc(F)cc1)Nc1cnn(CC(F)F)c1 | -6.59
56 | Cc1ccc(S(=O)(=O)Cc2noc([C@@H]3C[C@@H](O)CN3C)n2)cc1 | -2.56
57 | CCn1ncnc1C(C)Nc1cc(C2CCNCC2)nc(C)n1 (stereo not drawn) | 26.8
58 | COc1ccc(CNC(=O)NCc2cc(C)oc2C)cc1 | -10.8
59 | CN(C)c1cc2c(nn1)CCN(C(=O)C1CCc3ccccc31)C2 (stereo not drawn) | 13.5
60 | O=C(NC[C@H]1OC[C@@H](NCc2ccccn2)[C@@H]1O)N1CCOCC1 | -10.1
61 | CCOC(C)c1noc(CN2CCCNCC2)n1 (stereo not drawn) | -5.58
62 | Cn1cccc1C(O)CNC(=O)c1ccc(C(F)(F)F)cc1 (stereo not drawn) | -20.6
63 | CCOC(=O)[C@H]1[C@@H](O)C(=O)N(C)C12CCN(C(=O)CC(C)(C)C)CC2 | -6.45
64 | CN(C)Cc1nn(C)c2c1CCN(C(=O)CC1CC1)C2 | 39.3
65 | CN(Cc1ccccn1)C(=O)Nc1cc(C(F)(F)F)c[nH]c1=O | -1.8
66 | COc1ccc(CN(C)C(=O)NCc2c(C)cc(C)nc2OC)cc1 | -5.78
67 | CC(=O)NCCNC(=O)N(C)Cc1ccc2c(c1)OCCO2 | -12
68 | CCCn1nnnc1COc1cc(OC)ccc1C(N)=O | -7.31
69 | Cn1cc(Cl)c(C(=O)N2CCCN(C3Cc4ccccc4C3)CC2)n1 | 47.8

Row | SMILES | cytotoxicity at 70.5 h [%]
70 | COc1cc2nc(C)n(CC(=O)NCCCO)c(=O)c2cc1OC | -10.5
71 | CC(C)(NCC(=O)NCC(F)(F)F)c1ccc2c(c1)OCCO2 | -16.8
72 | CN1CCOC(CNC(=O)CCc2cc(F)ccc2F)C1 (stereo not drawn) | -4.57
73 | CN(Cc1ccccc1O)C(=O)NC1CCCN(c2ncccn2)C1 (stereo not drawn) | 22.3
74 | Cc1ccccc1-c1noc(CN2CCOC(Cn3cccn3)C2)n1 (stereo not drawn) | -10.3
75 | CCOCC(O)CN1CCN(C(=O)c2ccccc2F)CC1 (stereo not drawn) | -1.86
76 | CC(=O)N(Cc1noc(C)n1)C1CCN(Cc2ccccc2C#N)C1 (stereo not drawn) | -5.45
77 | CCCc1ncc(CN(C)C2CCCN(CCc3ccccc3)C2)cn1 (stereo not drawn) | -4.41
78 | CN(C)C(=O)N1CCN(c2ccc(Cl)nn2)C(=O)C1 | -7.53
79 | COc1cc(S(=O)(=O)N2CCc3ccccc32)cc(C(=O)O)c1OC | -5.58
80 | N#Cc1cccnc1NCCNC(=O)N1CCCSCC1 | -13
81 | CCCOc1ccc(NC(=O)NCCC(=O)N(C)C)cc1Cl | -4.39
82 | C=C(C)CNc1ccc(C(=O)N(CC)Cc2nccn2C)cn1 | 25.1
83 | Cn1cc(C2CC3(CCN(C(=O)c4ccsc4)CC3)NC2=O)cn1 (stereo not drawn) | -0.304
84 | O=C(Cc1csc(-c2ccco2)n1)N1CCN(c2cnccn2)CC1 | 1.22
85 | COc1cc(F)c(NC(=O)N(C)CCNC(=O)N(C)C)cc1F | -0.221
86 | O=C(CCn1ccc2ncccc2c1=O)N1CCCC1 | 0.26
87 | COc1cc(Oc2ccc(C#N)cn2)ccc1CN1CCCC1 | -5.77
88 | Cc1ccc(N2CCCC(NCc3ccc(C)s3)C2)nn1 (stereo not drawn) | 3.59
89 | CN(C)CC1CN(Cc2coc(-c3ccc(Cl)cc3)n2)CCO1 (stereo not drawn) | 12.9
90 | COc1ccc(Nc2cc(C)nc(C)n2)cc1N1CCCC1=O | -7.1
91 | Cc1noc(C)c1-c1n[nH]c2c1CN(S(=O)(=O)c1cccs1)CC2 | 0.699
92 | COc1ccccc1OC1CCN(Cc2ccc(N(C)C)nc2)CC1 | -6.85

Row | SMILES | cytotoxicity at 70.5 h [%]
93 | Cc1noc(C)c1CNC(=O)N(C1CC1)C(C)c1ccco1 (stereo not drawn) | -3.98
94 | CC(C(=O)N1CCCN(c2ncccc2C#N)CC1)n1cncn1 (stereo not drawn) | -12.1
95 | CC(=O)NCC(=O)N1Cc2nc(COCc3csc(C)n3)oc2C1 | -8.19
96 | Cn1nccc1C(=O)N1CCOC(Cc2ccc(Cl)cc2)C1 (stereo not drawn) | 0.563
97 | CCc1ncc2c(n1)CN(Cc1cn3ccsc3n1)CC2 | 9.84
98 | COc1cc(N2CC[C@@H](O)[C@@H]2Cc2cccnc2)ncn1 | -8.63
99 | CCn1cc(-c2cc(C(=O)N3CCOCC3)c3cc(Cl)ccc3n2)cn1 | -5.95
100 | O=C(NCC(F)(F)F)c1ccc(-c2ccco2)[nH]c1=O | -4.71
101 | CN(Cc1cccnc1)Cc1cncc2c1CCN(c1ccccn1)C2 | 2.24
102 | Cc1nc(N2CCN(C(=O)c3ccncc3)CC2)c2c(n1)c(C)nn2C | 19.4
103 | O=C1CC2(CCN(Cc3ccc4cccc(O)c4n3)CC2)CN1 | -5.81
104 | Cn1cccc1C(=O)N1C[C@H]2CN(Cc3cccs3)C[C@H]2C1 | -4.47
105 | CNC(=O)COc1ccc(CNc2c(Cl)cccc2C#N)cc1 | -2.72
106 | O=C(C1CC1)N1CCC[C@]2(C[C@@H](OCc3ccncc3)CO2)C1 | 0.889
107 | CC(=O)Nc1nc(C2CCN(CC(N)=O)CC2)cs1 | -3.74
108 | O=C(Cc1ccsc1)N1CCN(CC2CC2)c2ncccc2C1 | -14
109 | CCN(CCO)C[C@@H]1CN(C(=O)c2ccc(C)s2)C[C@@H]1CO | 34.8
110 | CC(C)c1nccn1-c1cccc(C2CCN(C)CC2)n1 | 27.3
111 | c1cc(COC[C@H]2CCC[C@]23CNCCO3)ccn1 | 0.216
112 | Cc1cc(C)cc(CCC(=O)N2CCN(c3cc(C)nc(N)n3)CC2)c1 | 6.95
113 | COc1ccccc1CN(Cc1cccc(C)c1)C(=O)[C@@H](N)CC(=O)O | 8.65

Reference: ChEMBL document CHEMBL3507680, “University of Dundee, Gates Library screen for HepG2 cell viability”
